Measured values reported in patent publication US20230066946A1, “1,5-DIPHENYLPYRAZOLYL-3-OXYALKYL ACIDS AND 1-PHENYL-5-THIENYLPYRAZOLYL-3-OXYALKYL ACIDS AND THE USE THEREOF FOR CONTROL OF UNWANTED PLANT GROWTH” (Bayer Aktiengesellschaft, priority 2019, published 2023).

Tests used:
MATIN [1] = experiment: Post-emergence herbicidal action against MATIN; assay type: in vivo, Matricaria inodora; conditions: visual rating about 3 weeks after treatment
Procedure, shortened: (§1)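 Visual % damage (100% = dead, 0% = like untreated control) was scored about 3 weeks after foliar spraying of one-leaf-stage plants grown in sandy loam. Doses were 1280 or 320 g/ha, applied as aqueous WP/EC preparations with 0.5% additive in 600 litres per hectare water.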

AMARE [2] = experiment: Pre-emergence herbicidal action against AMARE; assay type: in vivo, Amaranthus retroflexus; conditions: scored visually after about 3 weeks vs untreated controls; for Pre-emergence action against AMARE in %: 1280 g/ha; for Pre-emergence action at 320 g/ha against AMARE in %: 100% = plants have died, 0% = like control plants
Procedure, shortened: (§2)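 Scoring is visual, in percent relative to untreated pots, roughly 3 weeks after soil-surface application. Rates were 1280 or 320 g/ha, delivered as WP or EC preparations with 0.5% additive in 600 L/ha water onto freshly sown, covered sandy loam.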

VIOTR [3] = experiment: Pre-emergence herbicidal action against VIOTR; assay type: in vivo, Viola tricolor; conditions: 1280 g/ha, scored visually after about 3 weeks vs untreated controls
Description: (§3) Seeds of mono- and dicotyledonous weed plants are placed in plastic pots in sandy loam soil (doubly sown with one species each of mono- or dicotyledonous weed plants per pot) and covered with soil. The compounds of the invention, formulated in the form of wettable powders (WP) or as emulsion concentrates (EC), are then applied onto the surface of the covering soil as aqueous suspension or emulsion with addition of 0.5% additive at a water application rate equivalent to 600 litres per hectare. After the treatment, the pots are placed in a greenhouse and kept under good growth conditions for the trial plants. After about 3 weeks, the effect of the preparations is scored visually in comparison with untreated controls as percentages. For example, 100% activity=the plants have died, 0% activity=like control plants. [table] Tables 4.1-4.15 below show the effects of selected compounds of the general formula (I) according to Tables 1 to 3 on various harmful plants at an application rate corresponding to 1280 or 320 g/ha, which have been obtained by the aforementioned experimental method.

PHBPU = experiment: Post-emergence herbicidal action against PHBPU; assay type: in vivo, Pharbitis purpurea; conditions: 320 g/ha, visual rating about 3 weeks after treatment
Procedure, shortened: as §1

VIOTR [4] = experiment: Post-emergence herbicidal action against VIOTR; assay type: in vivo, Viola tricolor; conditions: 320 g/ha, visual rating about 3 weeks after treatment
Procedure, shortened: as §1

AMARE [5] = experiment: Post-emergence herbicidal action against AMARE; assay type: in vivo, Amaranthus retroflexus; conditions: visual rating about 3 weeks after treatment
Procedure, shortened: as §1

POLCO [6] = experiment: Pre-emergence herbicidal action against POLCO; assay type: in vivo, Polygonum convolvulus; conditions: 320 g/ha, scored visually after about 3 weeks vs untreated controls
Description: as §3

STEME [7] = experiment: Post-emergence herbicidal action against STEME; assay type: in vivo, Stellaria media; conditions: visual rating about 3 weeks after treatment
Procedure, shortened: as §1

ECHCG [8] = experiment: Post-emergence herbicidal action against ECHCG; assay type: in vivo, Echinochloa crus-galli; conditions: 1280 g/ha, post-emergence at one-leaf stage, rated visually after about 3 weeks vs untreated controls
Procedure, shortened: as §1

VERPE [9] = experiment: Post-emergence herbicidal action against VERPE; assay type: in vivo, Veronica persica; conditions: 320 g/ha, visual rating about 3 weeks after treatment
Procedure, shortened: as §1

SETVI [10] = experiment: Pre-emergence herbicidal action against SETVI; assay type: in vivo, Setaria viridis; conditions: 1280 g/ha, scored visually after about 3 weeks vs untreated controls
Procedure, shortened: as §2

HORMU = experiment: Post-emergence herbicidal action against HORMU; assay type: in vivo, Hordeum murinum; conditions: 320 g/ha, visual rating about 3 weeks after treatment
Protocol: (§4) [table] Seeds of mono- and dicotyledonous weed plants are placed in plastic pots in sandy loam soil (twin sowing with one species each of mono- or dicotyledonous weed plants per pot), covered with soil and cultivated in a greenhouse under controlled growth conditions. 2 to 3 weeks after sowing, the test plants are treated at the one-leaf stage. The compounds of the invention, formulated in the form of wettable powders (WP) or as emulsion concentrates (EC), are applied to the green parts of the plants as aqueous suspension or emulsion with addition of 0.5% additive at a water application rate equivalent to 600 litres per hectare. After the test plants have been kept in the greenhouse under optimum growth conditions for about 3 weeks, the activity of the preparations is rated visually in comparison to untreated controls. For example, 100% activity=the plants have died, 0% activity=like control plants. Tables 5.1-5.16 below show the effects of selected compounds of the general formula (I) according to Tables 1 to 3 on various harmful plants at an application rate corresponding to 1280 or 320 g/ha, which have been obtained by the aforementioned experimental method.

POLCO [11] = experiment: Post-emergence herbicidal action against POLCO; assay type: in vivo, Polygonum convolvulus; conditions: 320 g/ha, visual rating about 3 weeks after treatment
Protocol: as §4

ECHCG [12] = experiment: Pre-emergence herbicidal action against ECHCG; assay type: in vivo, Echinochloa crus-galli; conditions: scored visually after about 3 weeks vs untreated controls, 100% = plants have died, 0% = like control plants
Procedure, shortened: as §2

STEME [13] = experiment: Pre-emergence herbicidal action against STEME; assay type: in vivo, Stellaria media; conditions: scored visually after about 3 weeks vs untreated controls
Procedure, shortened: as §2

VERPE [14] = experiment: Pre-emergence herbicidal action against VERPE; assay type: in vivo, Veronica persica; conditions: 320 g/ha, scored visually after about 3 weeks vs untreated controls
Procedure, shortened: as §2

MATIN [15] = experiment: Pre-emergence herbicidal action against MATIN; assay type: in vivo, Matricaria inodora; conditions: 1280 g/ha, scored visually after about 3 weeks vs untreated controls
Description: as §3

ALOMY = experiment: Post-emergence herbicidal action against ALOMY; assay type: in vivo, Alopecurus myosuroides; conditions: 1280 g/ha, post-emergence at one-leaf stage, rated visually after about 3 weeks vs untreated controls
Protocol: as §4

SETVI [16] = experiment: Post-emergence herbicidal action against SETVI; assay type: in vivo, Setaria viridis; conditions: 1280 g/ha, post-emergence at one-leaf stage, rated visually after about 3 weeks vs untreated controls
Procedure, shortened: as §1

Row | SMILES | Post-emergence action against MATIN in % (MATIN [1]; 320 g/ha) [%] | Post-emergence action against MATIN in % (MATIN [1]; 1280 g/ha) [%] | Pre-emergence action against AMARE in % (AMARE [2]) [%] | Pre-emergence action against VIOTR in % (VIOTR [3]) [%] | Post-emergence action against PHBPU in % (PHBPU) [%] | Post-emergence action against VIOTR in % (VIOTR [4]) [%] | Post-emergence action against AMARE in % (AMARE [5]; 320 g/ha) [%] | Post-emergence action against AMARE in % (AMARE [5]; 1280 g/ha) [%] | Pre-emergence action against POLCO in % (POLCO [6]) [%] | Post-emergence action against STEME in % (STEME [7]; 320 g/ha) [%] | Post-emergence action against STEME in % (STEME [7]; 1280 g/ha) [%] | Pre-emergence action at 320 g/ha against AMARE in % (AMARE [2]) [%] | Post-emergence action against ECHCG in % (ECHCG [8]) [%] | Post-emergence action against VERPE in % (VERPE [9]) [%] | Pre-emergence action against SETVI in % (SETVI [10]) [%] | Post-emergence action against HORMU in % (HORMU) [%] | Post-emergence action against POLCO in % (POLCO [11]) [%] | Pre-emergence action at 1280 g/ha against ECHCG in % (ECHCG [12]) [%] | Pre-emergence action against STEME in % (STEME [13]; 320 g/ha) [%] | Pre-emergence action against STEME in % (STEME [13]; 1280 g/ha) [%] | other results
1 | C#Cc1c(OCC(=O)OC)nn(-c2ccccc2)c1-c1ccc(F)cc1 [I-066] | 80 | 80 | 100 | 90 | 90 | 80 |  |  |  |  |  |  |  |  |  |  |  |  |  |  | 
2 | COC(=O)COc1nn(-c2ccccc2F)c(-c2ccc(F)c(F)c2)c1Br [I-055] |  | 100 | 100 |  | 80 | 100 | 90 | 90 | 90 | 80 | 100 | 100 | 100 | 80 | 100 | 80 | 80 | 100 | 100 | 100 | Pre-emergence action against VERPE in % (VERPE [14]): 90%
3 | COC(=O)COc1nn(-c2cccc(Cl)c2)c(-c2cccc(F)c2)c1C#N [I-046] |  | 80 | 90 | 90 | 80 | 80 |  | 80 |  | 80 | 80 | 90 |  | 80 |  |  |  |  |  |  | Pre-emergence action against MATIN in % (MATIN [15]): 90%; Post-emergence action against ALOMY in % (ALOMY): 80%
4 | O=C(O)COc1nn(-c2c(F)cccc2F)c(-c2ccc(F)c(F)c2)c1Br [I-137] | 80 | 90 | 100 |  | 90 | 80 | 80 | 90 | 100 | 90 | 100 | 90 | 100 | 90 | 100 | 80 | 90 | 100 | 90 | 100 | Post-emergence action against SETVI in % (SETVI [16]): 90%; Pre-emergence action against VERPE in % (VERPE [14]): 90%
5 | CCOC(=O)COc1nn(-c2ccccc2F)c(-c2ccccc2)c1[N+](=O)[O-] [I-075] | 80 |  |  |  | 90 | 100 |  |  | 80 |  |  |  |  | 80 |  | 80 | 80 |  | 80 |  | 
6 | C#Cc1c(OCC(=O)OC)nn(-c2ccccc2F)c1-c1ccccc1 [I-063] |  | 80 | 80 | 100 |  | 90 |  |  |  |  |  |  |  |  | 100 |  |  |  |  | 80 | Post-emergence action against SETVI in % (SETVI [16]): 80%
7 | COC(=O)[C@H](C)Oc1nn(-c2ccccc2)c(-c2ccc(F)cc2)c1C#N [I-141] | 80 | 90 | 100 |  |  | 90 | 90 | 90 |  | 90 | 90 | 90 | 100 |  | 100 | 80 |  | 100 | 80 | 90 | 
